The source of these data is patent US20260015341A1, “PI3K INHIBITOR, PREPARATION METHOD THEREFOR, AND USE THEREOF” (HINOVA PHARMACEUTICALS INC., priority 2022, published 2026).

Bounds are passed on as bounds.

One series is described as follows: Pharmacokinetics in rats. Type of series: in vivo, SD rats. Conditions: rat; for AUC / half-life / clearance / Vd: male, SD, plasma; for Vd: read-out: VSS. The procedure:
Experimental Example 4: The Pharmacokinetics of the Compound According to the Present Invention in Rats
(§1) 9 healthy adult male SD rats (three for each administration route of each compound) were fasted overnight (>12 h) before gavage, with free access to water; 4 hours after administration, rats could take food, and were administered via tail vein injection and gastric lavage, respectively. At different time points, intravenous blood sample was collected and anti-coagulated, wherein the anticoagulant was EDTA-K2 (the sample was placed in an ice bath after blood collection). The plasma was separated by centrifugation at 4° C. and 6000 g for 5 min, and stored at −70° C. for testing. The plasma concentration of compounds was determined by LC-MS/MS method.
(§2) The plasma concentration of compound at all time points was used to calculate the main pharmacokinetic parameters with Winnolin 8.3 non-compartmental model.
(§3) The area under the concentration-time curve AUCall value: calculated using the trapezoidal method; AUCinf=AUCall+Ct/ke, Ct is the plasma concentration at the last measurable time point, and ke is the elimination rate constant;
The elimination half life t1/2=0.693/ke;
(§4) The clearance rate CL=D/AUCinf (D is the administration dosage);
The volume of distribution at steady state Vss=CL×MRT, The mean retention time MRT=AUMC/AUC;

The next series has as its system T47D cells. Put plainly: Inhibitory effects on the proliferation of T47D cells (CellTiter-Glo). In kind it is cell-based. The following applies: Homo sapiens, 168 h, 7 days. In short, it runs like this: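 T47D cells (1000/well, RPMI 1640 + 10% FBS) cultured 24 h, then exposed 7 days at 37 °C to 9 compound concentrations, 3-fold dilutions from 10 μM final. Viability by CellTiter-Glo luminescence; IC50 derived.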

The nature of series [1]: Pharmacokinetics in beagle dogs. Type of series: in vivo. The following applies: beagle dog; for AUC / half-life / clearance / Vd: male, plasma; for Vd: read-out: VSS. Here is the method: Experimental Example 5: The Pharmacokinetics of the Compound According to the Present Invention in Beagle Dogs
as §1, with “beagle dogs” for “SD rats”, “forelimb venous” for “intravenous”, “3200” for “4° C. and 6000”, “10” for “5”
as §2, §3, §4
The volume of distribution at steady state Vss=CL×MRT. The mean retention time MRT=AUMC/AUC;

Where [2] appears, read: iv (tail vein injection), 1 mg/kg.
The mark [3] stands for this setting: po, ig (intragastric), 10 mg/kg.

For the compound `C[C@@H](Nc1ccc(Cl)nc1C(=O)O)c1cc(F)cc2c(=O)n(C)c(-c3ccc(F)cn3)nc12` [Compound 74], the AUC came out at 1.33 µg·h/mL in the series “Pharmacokinetics in rats” (po, ig (intragastric), 3 mg/kg); 1.01 µg·h/mL in the series “Pharmacokinetics in rats” (setting [2]); 3.71 µg·h/mL in series [1] (po, ig (intragastric), 3 mg/kg); 13.7 µg·h/mL in series [1] (setting [3]); 2.39 µg·h/mL in series [1] (iv, 1 mg/kg). For the same compound, the half-life in the series “Pharmacokinetics in rats” (po, ig (intragastric), 3 mg/kg) is 2.4 h; in the series “Pharmacokinetics in rats” (setting [2]), 2.73 h; in series [1] (po, ig (intragastric), 3 mg/kg) it was 4.11 h; in series [1] (setting [3]), 12.7 h; in series [1] (iv, 1 mg/kg), 5.56 h. Besides, the clearance in the series “Pharmacokinetics in rats” (setting [2]) stood at 0.996 L/h/kg; in series [1] (iv, 1 mg/kg) it was 0.414 L/h/kg. For the same compound, the Vd in the series “Pharmacokinetics in rats” (setting [2]) is 1.33 L/kg; in series [1] (iv, 1 mg/kg) it was 0.663 L/kg. Besides, the F in “Pharmacokinetics in rats” (ig (intragastric), 3 mg/kg) came out at 44.8%; in series [1] (ig (intragastric), 3 mg/kg), 52.4%; in series [1] (ig (intragastric), 10 mg/kg), 62.8%. Besides, the IC50 with T47D cells is < 1 µM.

Take `Cc1cc([C@@H](C)Nc2ccc(Cl)nc2C(=O)O)c2nc(-c3ccc(F)cn3)n(C)c(=O)c2c1` [Compound 66, (R)-6-chloro-3-((1-(2-(5-fluoropyridin-2-yl)-3,6-dimethyl-4-oxo-3,4-dihydroquinazolin-8-yl)ethyl)amino)pyridinecarboxylic Acid]: the AUC in the series “Pharmacokinetics in rats” (po, ig (intragastric), 3 mg/kg) is 4.04 µg·h/mL; in “Pharmacokinetics in rats” (setting [2]) it was 1.39 µg·h/mL; in series [1] (po, ig (intragastric), 3 mg/kg), 4.91 µg·h/mL; in series [1] (setting [3]) it was 11 µg·h/mL; in series [1] (iv, 1 mg/kg), 2.21 µg·h/mL. Further, the half-life in “Pharmacokinetics in rats” (po, ig (intragastric), 3 mg/kg) was 18 h; in “Pharmacokinetics in rats” (setting [2]) it was 3.44 h; in series [1] (po, ig (intragastric), 3 mg/kg) it was 3.81 h; in series [1] (setting [3]) it was 7.7 h; in series [1] (iv, 1 mg/kg), 3.34 h. Also, the clearance came out at 0.654 L/h/kg in the series “Pharmacokinetics in rats” (setting [2]) and 0.466 L/h/kg in series [1] (iv, 1 mg/kg). The Vd in “Pharmacokinetics in rats” (setting [2]) is 2.2 L/kg; in series [1] (iv, 1 mg/kg), 0.879 L/kg. In addition, the F is 89.0% in “Pharmacokinetics in rats” (ig (intragastric), 3 mg/kg); 74.5% in series [1] (ig (intragastric), 3 mg/kg); 49.1% in series [1] (ig (intragastric), 10 mg/kg). Further, in the series on T47D cells, the IC50 was < 1 µM.
